Source: patent US9447449B2, “Recombinant mycobacteriophages for delivery of nucleic acids of interest into mycobacteria” (Albert Einstein College of Medicine of Yeshiva University, priority 2011, dated 2016)

Tested on: M. tuberculosis mc^26230
Format: cell-based

| SMILES | MFI relative to untreated control | average fluorescence decreased by [%] | effect of 18 hr pre-treatment prior to phage addition on DST signal | six hour pre-incubation to determine drug sensitivity | fluorescence of the M. tuberculosis cells diminished by |
| --- | --- | --- | --- | --- | --- |
| NNC(=O)c1ccncc1 [isoniazid] | lower than the untreated control | 64 | increased the difference between treated and non-treated samples | not sufficient |  |
| CO[C@H]1/C=C/O[C@@]2(C)Oc3c(C)c(O)c4c(O)c(c(/C=N/N5CCN(C)CC5)c(O)c4c3C2=O)NC(=O)/C(C)=C\C=C\[C@H](C)[C@H](O)[C@@H](C)[C@@H](O)[C@@H](C)[C@H](OC(C)=O)[C@@H]1C [rifampicin] |  |  |  |  | approximately 85% |
| NC[C@H]1O[C@H](O[C@H]2[C@H](O)[C@@H](O[C@H]3O[C@H](CO)[C@@H](O)[C@H](N)[C@H]3O)[C@H](N)C[C@@H]2N)[C@H](O)[C@@H](O)[C@@H]1O [kanamycin] |  |  |  |  | approximately 85% |
